Measured values as given in paper PMC12583694, “RNF114 and RNF166 exemplify reader-writer E3 ligases that extend K11 polyubiquitin onto sites of MARUbylation” (The EMBO Journal, 2025).

Columns and labels:
[1] = target: T1, RNF114 (Homo sapiens, UniProt Q9Y508); experiment: fluorescence polarization; assay type: binding; conditions: labelled compound; unreliable (estimated, saturation not reached); pH 7.4, 150 mM NaCl, 0.1 mg/mL BSA, 1 mM TCEP, 22 °C
T1 construct: full-length RNF114, N-terminal His-3C fusion (pOPIN-B), expressed in E. coli Rosetta; cobalt resin and gel filtration
T1 sequence (Q9Y508 whole entry, the tested form may be a part): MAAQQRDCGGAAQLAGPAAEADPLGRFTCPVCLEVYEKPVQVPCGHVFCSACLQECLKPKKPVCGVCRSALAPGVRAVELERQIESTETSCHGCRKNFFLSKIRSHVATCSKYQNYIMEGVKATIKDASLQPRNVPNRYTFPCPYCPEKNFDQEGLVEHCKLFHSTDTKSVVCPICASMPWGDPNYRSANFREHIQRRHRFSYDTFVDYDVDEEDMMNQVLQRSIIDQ

[2] = target: T2, AF1521 macrodomain (GST-AF1521) (Archaeoglobus fulgidus, UniProt O28751); experiment: fluorescence polarization; conditions: labelled compound; pH 7.4, 150 mM NaCl, 0.1 mg/mL BSA, 1 mM TCEP, 22 °C; one-site total binding fit
T2 construct: gene AF_1521; GST-AF1521 plasmid (gift from M. Nielsen), purified as previously reported
T2 sequence (O28751 1-192): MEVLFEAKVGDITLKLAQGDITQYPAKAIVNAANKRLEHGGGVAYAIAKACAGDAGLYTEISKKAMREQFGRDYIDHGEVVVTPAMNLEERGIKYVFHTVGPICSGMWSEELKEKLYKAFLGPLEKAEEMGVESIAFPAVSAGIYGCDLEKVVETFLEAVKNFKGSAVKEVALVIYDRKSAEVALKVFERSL

Q: What does the source list for ADPr^T?
A: Kd [1]: ~ 40 µM; Kd [2]: 1200 nM
